This passage reports IC50 results from patent US7772246B2 (Pfizer Inc., priority 2007, dated 2010).

Molecules are shown by their SMILES.

As a reminder, the IC50 is the concentration that inhibits the measured activity by half.

This assay addresses T1, b-Raf (Homo sapiens, UniProt P15056, V600E).
T1 construct: endogenous in cells; host or cells: A2058 human melanoma cells
Briefly: Raf cellular assay (phospho-Mek1/2 ELISA in A2058 cells). Conditions: Table 3; human melanoma A2058 cells (b-Raf mutation), Mek1/2 Ser217/221 phosphorylation, 1 hour incubation; read-out: pMEK IC50. The assay is classed as cell-based. How it is done:
Compounds of the present invention were evaluated for potency against b-Raf using a cellular assay as follows. The activity of Raf kinases in cells is determined by measuring the level of phosphorylation of Mek1/2 at serine 217/221, the site phosphorylated by Raf kinases in vivo. Mek1/2 Ser phosphorylation is measured using anti-phospho-Mek1/2 antibodies (Cell Signaling #9121) in an ELISA format.
Healthy growing human melanoma A2058 cells (harboring a b-Raf mutation) are used for the assay. A2058 cells are grown in 10% FBS DMEM medium. When the cells are near 85%+confluence, the cells are rinsed with PBS once and trypsinized with trypsin/EDTA for 3 minutes. The cells are resuspended in 10% FBS DMEM and are centrifuged down at 1000 rpm for 5 minutes. The cells are resuspended in 10% FBS DMEM and counted on a cell counter. The cells are seeded at 50,000 cells/well in a volume of 100 μL/well in 10% FBS DMEM in a 96 well flat-bottom plate. The negative control wells receive only 100 μL of 10% FBS DMEM medium without cells. The plate is incubated overnight in a cell culture incubator with 5% CO2 at 37° C.
On day 2, testing compounds are prepared in 10% FBS DMEM medium and serially diluted at 1:3 for 11 test concentrations. Each concentration of the compounds is tested in duplicate. The compound solutions are added at 25 μL/well to the corresponding wells in the cell plate, and 25 μL/well of the vehicle (0.5% DMSO in 10% FBS DMEM) is added to the negative control wells (no cells) and the positive control wells (cells without compounds). The plate is incubated for 1 hour in a cell culture incubator with 5% CO2 at 37° C. After 1 hour of incubation, the medium is removed, 100 μL/well of cell lysis buffer is added into the cell plate, and the plate is shaken for 15 minutes at room temperature. After 15 minutes, the cell lysates are transferred to an ELISA plate (pre-coated with anti-Mek1 anti-body, Cell Signaling #2352), and the plate is incubated with gentle shaking for 2 hours at room temperature. After 2 hours, the contents of the wells are aspirated and the wells are washed 4 times with wash buffer. 100 μL of phospho-Mek1/2 detection antibody (Cell Signaling #9121) is added into each well and the plate is incubated with gentle shaking for 1 hour at room temperature. After 1 hour, the wells are aspirated and washed 4 times with wash buffer. 100 μL of anti-rabbit IgG HRP-linked antibody (Cell Signaling #7074) is added to each well, and the plate is incubated with gentle shaking for 1 hour at room temperature. After 1 hour, the contents of the wells are aspirated and the wells are washed 4 times with wash buffer. 100 μL of TMB substrate solution (Sigma #T0440) is added into each well, and the plate is incubated with gentle shaking at room temperature for 10 to 20 minutes. After color development, 100 μL of stop solution (1N hydrochloric acid) is added to each well to terminate color development. The plate is read at 450 nm on an ELISA plate reader.
(An ELISA detects its analyte on a solid surface through an enzyme-linked reagent.)

T1 sequence (P15056 whole entry V600E): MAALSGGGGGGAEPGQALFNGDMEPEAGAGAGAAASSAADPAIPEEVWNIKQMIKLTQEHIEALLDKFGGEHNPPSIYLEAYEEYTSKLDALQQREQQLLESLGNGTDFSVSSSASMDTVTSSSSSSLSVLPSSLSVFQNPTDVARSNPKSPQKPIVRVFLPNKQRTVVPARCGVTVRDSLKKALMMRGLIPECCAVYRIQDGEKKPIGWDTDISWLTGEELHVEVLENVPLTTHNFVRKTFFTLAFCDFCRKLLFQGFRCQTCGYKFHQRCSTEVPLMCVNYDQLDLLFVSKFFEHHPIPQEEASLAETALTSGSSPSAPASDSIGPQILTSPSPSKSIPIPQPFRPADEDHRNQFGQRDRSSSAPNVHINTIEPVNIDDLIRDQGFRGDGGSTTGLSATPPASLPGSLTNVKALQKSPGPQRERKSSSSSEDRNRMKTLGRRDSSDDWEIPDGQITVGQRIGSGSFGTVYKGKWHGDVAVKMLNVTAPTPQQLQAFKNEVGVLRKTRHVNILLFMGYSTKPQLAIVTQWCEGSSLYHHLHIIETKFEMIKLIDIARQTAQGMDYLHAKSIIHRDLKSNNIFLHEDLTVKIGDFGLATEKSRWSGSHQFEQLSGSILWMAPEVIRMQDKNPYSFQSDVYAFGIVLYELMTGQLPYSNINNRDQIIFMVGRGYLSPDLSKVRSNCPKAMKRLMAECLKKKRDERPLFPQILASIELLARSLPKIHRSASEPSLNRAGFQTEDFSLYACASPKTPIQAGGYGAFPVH

With `CC(=O)N1CCC(n2cc(-c3ccnc(NCC(F)F)n3)c(-c3cnc4[nH]cc(Cl)c4c3)n2)CC1` [Example B-67, 4-[1-(1-acetylpiperidin-4-yl)-3-(3-chloro-1H-pyrrolo[2,3-b]pyridin-5-yl)-1H-pyrazol-4-yl]-N-(2,2-difluoroethyl)-pyrimidin-2-amine], the half-inhibitory concentration (IC50) is 9.2 nM. Consider `COc1cc(-c2n[nH]cc2-c2ccnc(NCC(F)F)n2)cnc1N` [Example B-68, 4-[3-(6-amino-5-methoxypyridin-3-yl)-1H-pyrazol-4-yl]-N-(2,2-difluoroethyl)-pyrimidin-2-amine], for which the half-inhibitory concentration (IC50) was determined as 25.6 nM. `COc1cc(-c2nn(C3CCOCC3)cc2-c2ccnc(NCCC#N)n2)cnc1N` [Example B-69, 3-({4-[3-(6-amino-5-methoxypyridin-3-yl)-1-(tetrahydro-2H-pyran-4-yl)-1H-pyrazol-4-yl]pyrimidin-2-yl}amino)propanenitrile]: the IC50 worked out at 2.98 nM. Take `COc1cc(-c2nn(C3CCOCC3)cc2-c2ccnc(NCC(F)F)n2)cnc1N` [Example B-70, 4-[3-(6-amino-5-methoxypyridin-3-yl)-1-(tetrahydro-2H-pyran-4-yl)-1H-pyrazol-4-yl]-N-(2,2-difluoroethyl)-pyrimidin-2-amine]: the IC50 is 2.33 nM. With `Cc1n[nH]c2ncc(-c3nn(C(C)(C)C)cc3-c3ccnc(NCCC#N)n3)cc12` [Example B-71, 3-({4-[1-tert-butyl-3-(3-methyl-1H-pyrazolo[3,4-b]pyridin-5-yl)-1H-pyrazol-4-yl]pyrimidin-2-yl}amino)propanenitrile] the figure was 2.8 nM; with `CC(C)(C)n1cc(-c2ccnc(NCCC#N)n2)c(-c2cnc3c(c2)CCN3)n1` [Example B-72, 3-({4-[1-tert-butyl-3-(2,3-dihydro-1H-pyrrolo[2,3-b]pyridin-5-yl)-1H-pyrazol-4-yl]pyrimidin-2-yl}amino)propanenitrile], 8.15 nM; with `COc1cncc(-c2nn([C@@H]3CCOC3)cc2-c2ccnc(NCCC#N)n2)c1` [Example B-73, 3-[(4-{3-(5-methoxypyridin-3-yl)-1-[(3R)-tetrahydrofuran-3-yl]-1H-pyrazol-4-yl}pyrimidin-2-yl)amino]propanenitrile], 63.5 nM. Regarding `CC(C)(C)n1cc(-c2ccnc(NCCC#N)n2)c(-c2cnc3[nH]ccc3c2)n1` [Example B-74, 3-({4-[1-tert-butyl-3-(1H-pyrrolo[2,3-b]pyridin-5-yl)-1H-pyrazol-4-yl]pyrimidin-2-yl}amino)-propanenitrile], the IC50 is 5.33 nM.

Regarding `N#CCCNc1nccc(-c2cn([C@@H]3CCOC3)nc2-c2cnc3[nH]ccc3c2)n1` [Example B-75, 3-[(4-{3-(1H-pyrrolo[2,3-b]pyridin-5-yl)-1-[(3R)-tetrahydrofuran-3-yl]-1H-pyrazol-4-yl}pyrimidin-2-yl)amino]propanenitrile], the IC50 stood at 23.8 nM.

For `C[C@H](O)CNc1nccc(-c2cn(C3CCOCC3)nc2-c2cnc3[nH]cc(Cl)c3c2)n1` [Example B-76, (2S)-1-({4-[3-(3-chloro-1H-pyrrolo[2,3-b]pyridin-5-yl)-1-(tetrahydro-2H-pyran-4-yl)-1H-pyrazol-4-yl]pyrimidin-2-yl}amino)propan-2-ol], the IC50 was 12 nM.

Consider `FC(F)CNc1nccc(-c2cn(C3CCNCC3)nc2-c2cnc3[nH]cc(Cl)c3c2)n1` [Example B-77, 4-[3-(3-chloro-1H-pyrrolo[2,3-b]pyridin-5-yl)-1-piperidin-4-yl-1H-pyrazol-4-yl]-N-(2,2-difluoroethyl)pyrimidin-2-amine], for which the IC50 came out at 30.4 nM. The figure for `CC(=O)c1cc(-c2nn(CC(F)F)cc2-c2ccnc(NCCC#N)n2)cnc1N` [Example B-78, 3-(4-(3-(5-acetyl-6-aminopyridin-3-yl)-1-(2,2-difluoroethyl)-1H-pyrazol-4-yl)pyrimidin-2-ylamino)propanenitrile] is 8.8 nM; for `COc1cc(-c2nn(-c3ccc(C#N)cc3)cc2-c2ccnc(NCCO)n2)cnc1N` [Example B-80, 4-[3-(6-amino-5-methoxypyridin-3-yl)-4-{2-[(2-hydroxyethyl)-amino]pyrimidin-4-yl}-1H-pyrazol-1-yl]-benzonitrile] it is 95.3 nM; for `COc1ccc(Nc2nccc(-c3cn(CC(F)F)nc3-c3cnc4[nH]ccc4c3)n2)cn1` [Example B-81, 4-[1-(2,2-difluoroethyl)-3-(1H-pyrrolo[2,3-b]pyridin-5-yl)-1H-pyrazol-4-yl]-N-(6-methoxypyridin-3-yl)pyrimidin-2-amine] it is 71.5 nM. Regarding `COc1cc(-c2nn(CC(F)F)cc2-c2ccnc(NCCC#N)n2)cnc1N` [Example B-82, 3-(4-(3-(6-amino-5-methoxypyridin-3-yl)-1-(2,2-difluoroethyl)-1H-pyrazol-4-yl)pyrimidin-2-ylamino)propanenitrile], the half-maximal inhibitory concentration (IC50) worked out at 0.627 nM. Regarding `C[C@H](O)CNc1nccc(-c2cn([C@H]3C[C@@H](F)C3)nc2-c2cnc3[nH]cc(Cl)c3c2)n1` [Example B-84, (S)-1-(4-(3-(3-chloro-1H-pyrrolo[2,3-b]pyridin-5-yl)-1-((1s,3s)-3-fluorocyclobutyl)-1H-pyrazol-4-yl)pyrimidin-2-ylamino)propan-2-ol], the IC50 came out at 18.7 nM.

With `COc1cc(-c2nn([C@H]3C[C@H](F)C3)cc2-c2ccnc(NC[C@H](C)O)n2)cnc1N` [Example B-85, (S)-1-(4-(3-(6-amino-5-methoxypyridin-3-yl)-1-((1r,3r)-3-fluorocyclobutyl)-1H-pyrazol-4-yl)pyrimidin-2-ylamino)propan-2-ol], the IC50 came to 21.9 nM.

Consider `C[C@H](O)CNc1nccc(-c2cn([C@H]3C[C@H](F)C3)nc2-c2cnc3[nH]cc(Cl)c3c2)n1` [Example B-86, (S)-1-(4-(3-(3-chloro-1H-pyrrolo[2,3-b]pyridin-5-yl)-1-((1r,3r)-3-fluorocyclobutyl)-1H-pyrazol-4-yl)pyrimidin-2-ylamino)propan-2-ol], for which the IC50 stood at 30.6 nM. On to `CC1CNc2ncc(-c3nn(CC(F)F)cc3-c3ccnc(NC[C@H](C)O)n3)cc21` (stereo partly drawn) [Example B-87, (2S)-1-(4-(1-(2,2-difluoroethyl)-3-(3-methyl-2,3-dihydro-1H-pyrrolo[2,3-b]pyridin-5-yl)-1H-pyrazol-4-yl)pyrimidin-2-ylamino)propan-2-ol], for which the 50% inhibitory concentration (IC50) was 510 nM.

For the compound `N#CCCNc1nccc(-c2cn(CC(F)F)nc2-c2cnc3c(c2)CCN3)n1` [Example B-88, 3-(4-(1-(2,2-difluoroethyl)-3-(2,3-dihydro-1H-pyrrolo[2,3-b]pyridin-5-yl)-1H-pyrazol-4-yl)pyrimidin-2-ylamino)propanenitrile], the half-maximal inhibitory concentration (IC50) is 6.93 nM. With `CC(C)(O)CNc1nccc(-c2cn(CC(F)F)nc2-c2cnc3c(c2)CCN3)n1` [Example B-89, 1-(4-(1-(2,2-difluoroethyl)-3-(2,3-dihydro-1H-pyrrolo[2,3-b]pyridin-5-yl)-1H-pyrazol-4-yl)pyrimidin-2-ylamino)-2-methylpropan-2-ol] the figure was 284 nM. Turning to `FC(F)CNc1nccc(-c2cn(CC(F)F)nc2-c2cnc3c(c2)CCN3)n1` [Example B-90, N-(2,2-difluoroethyl)-4-(1-(2,2-difluoroethyl)-3-(2,3-dihydro-1H-pyrrolo[2,3-b]pyridin-5-yl)-1H-pyrazol-4-yl)pyrimidin-2-amine], the IC50 stood at 43.4 nM. Turning to `Cc1n[nH]c2ncc(-c3nn(CC(F)F)cc3-c3ccnc(NCCC#N)n3)cc12` [Example B-91, 3-(4-(1-(2,2-difluoroethyl)-3-(3-methyl-1H-pyrazolo[3,4-b]pyridin-5-yl)-1H-pyrazol-4-yl)pyrimidin-2-ylamino)propanenitrile], the 50% inhibitory concentration (IC50) amounted to 4.94 nM. The figure for `C[C@H](O)CNc1nccc(-c2cn(CC(F)F)nc2-c2cnc3c(c2)[C@@H](C)CN3)n1` [Example B-92, (S)-1-(4-(1-(2,2-difluoroethyl)-3-((R)-3-methyl-2,3-dihydro-1H-pyrrolo[2,3-b]pyridin-5-yl)-1H-pyrazol-4-yl)pyrimidin-2-ylamino)propan-2-ol] is 280 nM.
